In patent US12473339B2, “Acylated glucagon analogues” (Zealand Pharma A/S, priority 2013, dated 2025):

Experiments:
[1] = target: T1, endogenous GLP-1 receptors (Mus musculus, UniProt O35659); assay: Agonistic activity on endogenous GLP-1 receptor (cAMP, murine insulinoma cell line); format: cell-based; settings: intracellular cAMP, 15 minutes at 26° C.
T1 construct: Agonistic activity of the test compounds on endogenous GLP-1 receptors; endogenous in cells
T1 sequence (O35659 22-463): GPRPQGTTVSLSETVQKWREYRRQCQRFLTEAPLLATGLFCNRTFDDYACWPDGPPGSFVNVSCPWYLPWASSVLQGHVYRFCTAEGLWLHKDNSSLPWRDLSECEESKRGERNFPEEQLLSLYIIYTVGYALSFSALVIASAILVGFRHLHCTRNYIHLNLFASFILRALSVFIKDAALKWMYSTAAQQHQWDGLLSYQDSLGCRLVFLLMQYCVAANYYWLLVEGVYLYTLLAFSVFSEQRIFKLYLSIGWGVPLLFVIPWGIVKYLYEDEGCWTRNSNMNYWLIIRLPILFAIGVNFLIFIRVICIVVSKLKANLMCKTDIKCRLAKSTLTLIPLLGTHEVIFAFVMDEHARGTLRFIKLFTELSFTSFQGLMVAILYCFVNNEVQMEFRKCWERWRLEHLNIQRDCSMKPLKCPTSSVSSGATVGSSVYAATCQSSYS
Protocol: Agonistic activity of the test compounds on endogenous GLP-1 receptors was determined using a murine insulinoma cell line. Intracellular cAMP was used an indicator of receptor activation.
Cells were cultured for 24 h at a density of 10,000 cells/well in a 384-well plate. Medium was removed and 10 μL KRBH buffer (NaCl 130 mM, KCl 3.6 mM, NaH2PO4 0.5 mM, MgSO4 0.5 mM, CaCl2 1.5 mM) containing test compound or GLP-1 (at increasing concentrations from 0.1 pM to 100 nM) or solvent control (0.1% (v/v) DMSO) was added to the wells for 15 minutes at a temperature of 26° C.
The cellular cAMP content is measured using the AlphaScreen cAMP Functional Assay Kit (Perkin Elmer). Measurement was performed using the Envision (PerkinElmer) according to manufacturer's recommendations.
Results were converted into cAMP concentrations using a cAMP standard curve prepared in KRBH buffer containing 0.1% (v/v) DMSO. The resulting cAMP curves were plotted as absolute cAMP concentrations (nM) over log (test compound concentration) and analyzed using the curve fitting program XLfit. […]

[2] = target: T2, human glucagon-like peptide 1 receptor (GLP-1R) (Homo sapiens, UniProt P43220); assay: GLP-1 receptor efficacy assay (cAMP AlphaScreen, CHO cells); format: cell-based; settings: EC50 [GLP-1R] / EC50 [Glucagon-R], human receptors in CHO-K1
T2 construct: expressed in transfected cells
T2 sequence (P43220 24-463): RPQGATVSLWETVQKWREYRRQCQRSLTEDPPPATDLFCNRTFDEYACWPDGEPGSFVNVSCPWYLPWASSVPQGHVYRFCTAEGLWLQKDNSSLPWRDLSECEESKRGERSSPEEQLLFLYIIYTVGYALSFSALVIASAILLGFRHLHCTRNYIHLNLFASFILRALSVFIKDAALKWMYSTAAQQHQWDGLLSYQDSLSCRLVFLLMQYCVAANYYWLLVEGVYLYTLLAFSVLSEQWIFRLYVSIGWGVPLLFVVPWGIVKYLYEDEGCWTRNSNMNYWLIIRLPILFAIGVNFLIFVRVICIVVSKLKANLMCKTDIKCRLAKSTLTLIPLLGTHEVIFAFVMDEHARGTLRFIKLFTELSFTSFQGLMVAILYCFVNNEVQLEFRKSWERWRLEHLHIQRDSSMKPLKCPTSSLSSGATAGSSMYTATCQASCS
Procedure, shortened: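 Stable CHO clones expressing the human receptor, seeded 24 h before assay. Peptides applied for 15 min at room temperature in KRBH with 0.1 mM IBMX; cells lysed and cAMP quantified by AlphaScreen. EC50 and efficacy relative to glucagon or GLP-1 from curve fitting.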

| Compound | EC50 [1] | Ratio GLP-1/Glucagon [2] |
| --- | --- | --- |
| CC(C)C[C@H](NC(=O)[C@H](CC(C)C)NC(=O)[C@H](Cc1c[nH]c2ccccc12)NC(=O)[C@H](CCC(=O)O)NC(=O)[C@@H](NC(=O)[C@H](Cc1ccccc1)NC(=O)[C@H](CC(=O)O)NC(=O)[C@H](Cc1c[nH]cn1)NC(=O)[C@H](C)NC(=O)[C@H](C)NC(=O)[C@H](CCCCNC(=O)CC[C@H](NC(=O)CCCCCCCCCCCCCCC(=O)O)C(=O)O)NC(=O)[C@H](CO)NC(=O)[C@H](CC(=O)O)NC(=O)[C@H](CC(C)C)NC(=O)[C@H](Cc1ccc(O)cc1)NC(=O)[C@H](CCCCN)NC(=O)[C@H](CO)NC(=O)[C@H](Cc1ccc(O)cc1)NC(=O)[C@H](CC(=O)O)NC(=O)[C@H](CO)NC(=O)[C@@H](NC(=O)[C@H](Cc1ccccc1)NC(=O)[C@@H](NC(=O)CNC(=O)[C@H](CCC(N)=O)NC(=O)C(C)(C)NC(=O)[C@@H](N)Cc1c[nH]cn1)[C@@H](C)O)[C@@H](C)O)C(C)C)C(=O)N[C@@H](CO)C(=O)N[C@@H](C)C(N)=O [Compound 1, H-H-Aib-QGTFTSDYSKYLDS-K([15-carboxy-pentadecanoyl]-isoGlu)-AAHDFVEWLLSA-NH2] | 0.6 nM | 1.81 |
| CC[C@H](C)[C@H](NC(=O)[C@H](Cc1ccccc1)NC(=O)[C@H](CC(=O)O)NC(=O)[C@H](CCCCN)NC(=O)[C@H](C)NC(=O)[C@H](C)NC(=O)[C@H](CCCCNC(=O)CC[C@H](NC(=O)CCCCCCCCCCCCCCCCC(=O)O)C(=O)O)NC(=O)[C@H](CCC(=O)O)NC(=O)[C@H](CC(=O)O)NC(=O)[C@H](CC(C)C)NC(=O)[C@H](Cc1ccc(O)cc1)NC(=O)[C@H](CCCCN)NC(=O)[C@H](CO)NC(=O)[C@H](Cc1ccc(O)cc1)NC(=O)[C@H](CC(=O)O)NC(=O)[C@H](CO)NC(=O)[C@@H](NC(=O)[C@H](Cc1ccccc1)NC(=O)[C@@H](NC(=O)CNC(=O)[C@H](CCC(N)=O)NC(=O)C(C)(C)NC(=O)[C@@H](N)Cc1c[nH]cn1)[C@@H](C)O)[C@@H](C)O)C(=O)N[C@@H](CCC(=O)O)C(=O)N[C@@H](Cc1c[nH]c2ccccc12)C(=O)N[C@@H](CC(C)C)C(=O)N[C@@H](CCC(=O)O)C(=O)N[C@@H](CO)C(=O)N[C@@H](C)C(N)=O [Compound 10, H-H-Aib-QGTFTSDYSKYLDE-K([17-carboxy-heptadecanoyl]-isoGlu)-AAKDFIEWLESA-NH2] | 0.6 nM | 0.38 |
